Laboratory results as given in patent US8735414B2 (priority 2009, dated 2014).

Assays:
[1] = test system: bicistronic HCV replicon (replicon RNA, GenBank Accession No. AJ242654); assay: HCV Replicon Assay; type: cell-based; conditions: Hepatitis C virus, 72 h, read-out: Replicon IC50

Compound | IC50 [1] [nM] | melting point
Cc1cc2c(cc1F)c(C#N)c(-c1ccc(S(=O)(=O)N[C@@H](C)C(F)(F)F)cn1)n2C1CCCC1 [compound 408, 6-(3-cyano-1-cyclopentyl-5-fluoro-6-methyl-1H-indol-2-yl)-N-[(2S)-1,1,1-trifluoropropan-2-yl]pyridine-3-sulfonamide] | < 500 | 168 to 171 °C
N#Cc1c(-c2ccc(S(=O)(=O)NC(CF)CF)cn2)n(C2CCC2)c2cc(OC(F)F)c(F)cc12 [compound 542, 6-[3-cyano-1-cyclobutyl-6-(difluoromethoxy)-5-fluoro-1H-indol-2-yl]-N-(1,3-difluoropropan-2-yl)pyridine-3-sulfonamide] | < 500 | 160 to 164 °C
CCc1cc2c(cc1F)c(C#N)c(-c1ccc(S(=O)(=O)N(c3ncccn3)C3(C)CC3)cn1)n2-c1ncccn1 [compound 861, 6-[3-cyano-6-ethyl-5-fluoro-1-(pyrimidin-2-yl)-1H-indol-2-yl]-N-(1-methylcyclopropyl)-N-(pyrimidin-2-yl)pyridine-3-sulfonamide] | 2000 to 5000 | 193 to 200 °C
C[C@@H](NS(=O)(=O)c1ccc(-c2c(C#N)c3cc(F)ccc3n2C2CCCC2)nc1)C(F)(F)F [compound 220, 6-(3-cyano-1-cyclopentyl-5-fluoro-1H-indol-2-yl)-N-[(2R)-1,1,1-trifluoropropan-2-yl]pyridine-3-sulfonamide] | < 500 | 158 to 160 °C
C[C@H](NS(=O)(=O)c1cnc(-c2c(C#N)c3ccc(OC(F)F)cc3n2C2CCCC2)nc1)C(F)(F)F [compound 326, 2-[3-cyano-1-cyclopentyl-6-(difluoromethoxy)-1H-indol-2-yl]-N-[(2S)-1,1,1-trifluoropropan-2-yl]pyrimidine-5-sulfonamide] | < 500 | 231 to 232 °C
CCc1cc2c(cc1F)c(C(N)=O)c(-c1ccc(NS(=O)(=O)C(C)(C)C)nc1)n2[C@@H](C)C1CC1 [compound 1083, 2-{6-[(tert-butylsulfonyl)amino]pyridin-3-yl}-1-[(1S)-1-cyclopropylethyl]-6-ethyl-5-fluoro-1H-indole-3-carboxamide] | < 500 | 256 to 259 °C
CCc1cc2c(cc1F)c(C(N)=O)c(-c1ccc(S(=O)(=O)N[C@@H](C)C(F)(F)F)cn1)n2-c1ccc(C(F)(F)F)cc1 [compound 1022, 6-ethyl-5-fluoro-1-[4-(trifluoromethyl)phenyl]-2-(5-{[(2S)-1,1,1-trifluoropropan-2-yl]sulfamoyl}pyridin-2-yl)-1H-indole-3-carboxamide] | < 500 | 253 to 259 °C
Cc1cc2c(cc1F)c(C#N)c(-c1ccc(S(=O)(=O)N[C@@H](C)C(F)(F)F)cn1)n2-c1cccnn1 [compound 892, 6-[3-cyano-5-fluoro-6-methyl-1-(pyridazin-3-yl)-1H-indol-2-yl]-N-[(2S)-1,1,1-trifluoropropan-2-yl]pyridine-3-sulfonamide] | < 500 | 245 to 250 °C
Cc1cc2c(cc1F)c(C#N)c(-c1ccc(S(=O)(=O)NC(C)(C)C(F)(F)F)cn1)n2C1CCCC1 [compound 681, 6-(3-cyano-1-cyclopentyl-5-fluoro-6-methyl-1H-indol-2-yl)-N-(1,1,1-trifluoro-2-methylpropan-2-yl)pyridine-3-sulfonamide] | < 500 | 223 to 225 °C
CC(C)(C)S(=O)(=O)Nc1ccc(-c2c(C(N)=O)c3c(F)cc(C4CC4)cc3n2C2CCCCC2)cn1 [compound 1088, 2-{6-[(tert-butylsulfonyl)amino]pyridin-3-yl}-1-cyclohexyl-6-cyclopropyl-4-fluoro-1H-indole-3-carboxamide] | < 500 | 290 to 294 °C
COc1cc2c(cc1F)c(C#N)c(-c1ccc(S(=O)(=O)NC(CF)CF)cn1)n2C1CCC1 [compound 102, 6-(3-cyano-1-cyclobutyl-5-fluoro-6-methoxy-1H-indol-2-yl)-N-(1,3-difluoropropan-2-yl)pyridine-3-sulfonamide] | < 500 | 217 to 219 °C
CC(C)NS(=O)(=O)c1ccc(-c2c(C#N)c3cc(F)ccc3n2C2CCOC2)nc1 (stereo not drawn) [compound 47, 6-[3-cyano-5-fluoro-1-(tetrahydrofuran-3-yl)-1H-indol-2-yl]-N-(propan-2-yl)pyridine-3-sulfonamide] | < 500 | 185 to 188 °C
CCCn1c(-c2ncc(S(=O)(=O)NC(CF)CF)cn2)c(C#N)c2ccc(OC(F)F)cc21 [compound 232, 2-[3-cyano-6-(difluoromethoxy)-1-propyl-1H-indol-2-yl]-N-(1,3-difluoropropan-2-yl)pyrimidine-5-sulfonamide] | < 500 | 177 to 179 °C
CC(C)n1c(-c2ncc(S(=O)(=O)NC(CF)CF)cn2)c(C#N)c2ccc(OC(F)F)cc21 [compound 137, 2-[3-cyano-6-(difluoromethoxy)-1-(propan-2-yl)-1H-indol-2-yl]-N-(1,3-difluoropropan-2-yl)pyrimidine-5-sulfonamide] | < 500 | 219 to 221 °C
CCn1c(-c2ccc(NS(=O)(=O)C(C)C)cn2)c(C#N)c2ccc(OC(C)C)cc21 [compound 286, N-{6-[3-cyano-1-ethyl-6-(propan-2-yloxy)-1H-indol-2-yl]pyridin-3-yl}propane-2-sulfonamide] | 500 to 2000 | 180 to 185 °C
CCc1ccc2c(c1)c(C#N)c(-c1ccc(S(=O)(=O)NC(CF)CF)cn1)n2C1CCC1 [compound 258, 6-(3-cyano-1-cyclobutyl-5-ethyl-1H-indol-2-yl)-N-(1,3-difluoropropan-2-yl)pyridine-3-sulfonamide] | < 500 | 163 to 164 °C
Cc1cc2c(cc1F)c(C#N)c(-c1ccc(S(=O)(=O)N[C@H](C)C(F)(F)F)cn1)n2-c1ccccn1 [compound 698, 6-[3-cyano-5-fluoro-6-methyl-1-(pyridin-2-yl)-1H-indol-2-yl]-N-[(2R)-1,1,1-trifluoropropan-2-yl]pyridine-3-sulfonamide] | < 500 | 170 to 174 °C
Cc1cc2c(C#N)c(-c3ccc(S(=O)(=O)N[C@@H](C)C(F)(F)F)cn3)n(C3CCC3)c2cc1F [compound 492, 6-(3-cyano-1-cyclobutyl-6-fluoro-5-methyl-1H-indol-2-yl)-N-[(2S)-1,1,1-trifluoropropan-2-yl]pyridine-3-sulfonamide] | < 500 | 185 to 190 °C
CC(C)(C)NS(=O)(=O)c1ccc(-c2c(C#N)c3cc(F)c(Br)cc3n2-c2ncccn2)nc1 [compound 938, 6-[6-bromo-3-cyano-5-fluoro-1-(pyrimidin-2-yl)-1H-indol-2-yl]-N-tert-butylpyridine-3-sulfonamide] | < 500 | 266 to 268 °C
N#Cc1c(-c2ncc(S(=O)(=O)NC(CF)CF)cn2)n(C2CCCCC2)c2cc(C3CC3)ccc12 [compound 193, 2-(3-cyano-1-cyclohexyl-6-cyclopropyl-1H-indol-2-yl)-N-(1,3-difluoropropan-2-yl)pyrimidine-5-sulfonamide] | < 500 | > 200 °C (dec.)
C[C@H](NS(=O)(=O)c1ccc(-c2c(C#N)c3cc(F)ccc3n2C2CCCCC2)nc1)C1CC1 [compound 250, 6-(3-cyano-1-cyclohexyl-5-fluoro-1H-indol-2-yl)-N-[(1S)-1-cyclopropylethyl]pyridine-3-sulfonamide] | < 500 | 161 to 163 °C
